As a reminder, the IC50 is the concentration that gives 50% inhibition. Low readings indicate higher potency, high ones lower potency.

The target in experiment [1] is T1, KRas-mediated phosphorylation of ERK in MKN1 cells (Homo sapiens, UniProt P01116).
T1 construct: pERK HTRF read-out
As to the kind of experiment: Inhibition of KRas-mediated phosphorylation of ERK (HTRF), MKN1 cells. Type of experiment: cell-based. Conditions: MKN1 cells (KRas WT); HTRF pERK; 3 h incubation. The method, then: Inhibition of KRas Phosphorylation of ERK (HTRF) by Exemplary Compounds of Formula (Ia) or (Ib)
Cisbio HTRF Advanced pERK Assay Catalog #64AERPEH • Cells: MKN1, PSN1 • Procedure: • 1. Day 1: Seed 6,000 cells/well −25 μl/well in 384-well white solid bottom plate; RPM1_10% FBS. Incubate overnight at 37 °C/5% CO2. • 2.

Experiment [2] has as its target T2, KRas-mediated phosphorylation of ERK in A549 cells (Homo sapiens, UniProt P01116, G12S).
T2 construct: pERK HTRF read-out
As to the kind of experiment: Inhibition of KRas-mediated phosphorylation of ERK (HTRF), A549 cells. The format is cell-based. The following applies: HTRF pERK, 3 h incubation.

Experiment [3] deals with T3, KRas-mediated phosphorylation of ERK in H358 cells (Homo sapiens, UniProt P01116, G12C).
T3 construct: pERK HTRF read-out
As to the kind of experiment: Inhibition of KRas-mediated phosphorylation of ERK (HTRF), H358 cells. Type of experiment: cell-based. The following applies: HTRF pERK, 3 h incubation. A general note: TR-FRET usually uses a lanthanide donor and a delayed reading to cut background.

The target of the next experiment is T4, KRas G12S (Homo sapiens, UniProt P01116, G12S).
T4 construct: Biotinylated KRas (corresponding to amino acids 1-169, produced at Accelegan Inc.); biotin (biotinylated); purchased Accelegan Inc
The experiment can be described thus: KRas binding assay, TR-FRET displacement of Cy5 labelled tracer. Conditions: 60-minute incubation at room temperature, 1% DMSO, pH 7.5. The essentials:
(§1)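 Biotinylated KRas (aa 1-169) incubated with Cy5-labelled tracer, terbium streptavidin and compound (1% DMSO final) in 50 mM HEPES pH 7.5, 5 mM MgCl2, 0.005% Tween-20, 1 mM DTT. Tracer displacement read by TR-FRET after 60 min at room temperature; POC values fitted to 4-parameter IC50 equation.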

The target of another experiment is T5, KRas G12C (Homo sapiens, UniProt P01116, G12C).
T5 construct: Biotinylated KRas (corresponding to amino acids 1-169, produced at Accelegan Inc.); biotin (biotinylated); purchased Accelegan Inc
The experiment is described as above. The following applies: 60-minute incubation at room temperature, 1% DMSO, pH 7.5. The essentials: as §1

Another experiment concerns the target T6, KRas WT (Homo sapiens, UniProt P01116).
T6 construct: Biotinylated KRas (corresponding to amino acids 1-169, produced at Accelegan Inc.); biotin (biotinylated); purchased Accelegan Inc
Described as above. Conditions: 60-minute incubation at room temperature, 1% DMSO, pH 7.5. The essentials: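 Displacement measured on KRas residues 1-169 (biotinylated, terbium-streptavidin labelled); 1 h, RT; 1% DMSO final; HEPES pH 7.5 / MgCl2 / Tween-20 / DTT. IC50: 4-parameter fit.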

T2 sequence (P01116 1-188 isoform P01116-2 G12S): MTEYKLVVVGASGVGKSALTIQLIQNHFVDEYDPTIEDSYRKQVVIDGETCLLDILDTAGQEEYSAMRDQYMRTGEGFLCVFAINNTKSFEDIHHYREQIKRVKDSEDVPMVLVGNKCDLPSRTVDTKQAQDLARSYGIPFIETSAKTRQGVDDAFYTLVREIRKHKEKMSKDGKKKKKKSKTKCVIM
T1 sequence (P01116 1-188 isoform P01116-2): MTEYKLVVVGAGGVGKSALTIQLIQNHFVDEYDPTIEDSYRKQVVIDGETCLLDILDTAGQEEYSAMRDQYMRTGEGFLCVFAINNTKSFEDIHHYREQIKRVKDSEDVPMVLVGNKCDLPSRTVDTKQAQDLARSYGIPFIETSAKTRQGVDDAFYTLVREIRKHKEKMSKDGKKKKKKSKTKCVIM
T5 sequence (P01116 1-169 isoform P01116-2 G12C): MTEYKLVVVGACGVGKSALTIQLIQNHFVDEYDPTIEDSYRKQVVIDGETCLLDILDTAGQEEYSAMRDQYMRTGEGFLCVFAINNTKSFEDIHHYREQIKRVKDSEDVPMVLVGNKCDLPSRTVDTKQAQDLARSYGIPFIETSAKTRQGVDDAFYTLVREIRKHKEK
T4 sequence (P01116 1-169 isoform P01116-2 G12S): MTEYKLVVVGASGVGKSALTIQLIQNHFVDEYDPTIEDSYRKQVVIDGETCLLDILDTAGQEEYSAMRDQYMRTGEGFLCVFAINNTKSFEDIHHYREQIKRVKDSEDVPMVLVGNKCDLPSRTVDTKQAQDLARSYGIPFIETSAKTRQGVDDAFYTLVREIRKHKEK
T3 sequence (P01116 1-188 isoform P01116-2 G12C): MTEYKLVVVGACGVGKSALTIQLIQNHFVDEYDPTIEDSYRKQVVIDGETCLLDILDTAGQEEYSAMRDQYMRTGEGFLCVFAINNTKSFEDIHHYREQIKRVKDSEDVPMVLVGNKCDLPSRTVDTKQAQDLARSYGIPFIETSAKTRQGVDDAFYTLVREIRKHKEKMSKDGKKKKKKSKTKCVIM
T6 sequence (P01116 1-169 isoform P01116-2): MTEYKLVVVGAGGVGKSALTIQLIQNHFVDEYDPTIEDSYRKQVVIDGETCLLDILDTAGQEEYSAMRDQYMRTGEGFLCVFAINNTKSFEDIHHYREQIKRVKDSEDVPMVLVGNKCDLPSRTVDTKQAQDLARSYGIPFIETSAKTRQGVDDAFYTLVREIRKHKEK

Consider `CCc1c(F)ccc2cc(O)cc(N3CCc4c(nc(OC[C@@]56CCCN5C[C@H](F)C6)nc4NCCC(=O)n4ccc(C)n4)C3)c12` [Example 195, 3-((7-(8-ethyl-7-fluoro-3-hydroxynaphthalen-1-yl)-2-(((2R,7aS)-2-fluorotetrahydro-1H-pyrrolizin-7a(5H)-yl)methoxy)-5,6,7,8-tetrahydropyrido[3,4-d]pyrimidin-4-yl)amino)-1-(3-methyl-1H-pyrazol-1-yl) propan-1-one], for which the IC50 in experiment [1] turned out to be 936 nM; in experiment [2], 84 nM; in experiment [3], 1170 nM; on KRas G12S, 6 nM; on KRas G12C, 13 nM; on KRas WT it was 43 nM.
As to `CCc1c(F)ccc2cc(O)cc(-c3ncc4c(N5CCC(C(=O)n6ccc(C)n6)CC5)nc(OC[C@@]56CCCN5C/C(=C\F)C6)nc4c3F)c12` [Example 70, (S,Z)-(1-(7-(8-ethyl-7-fluoro-3-hydroxynaphthalen-1-yl)-8-fluoro-2-((2-(fluoromethylene)tetrahydro-1H-pyrrolizin-7a(5H)-yl)methoxy)pyrido[4,3-d]pyrimidin-4-yl)piperidin-4-yl)(3-methyl-1H-pyrazol-1-yl)methanone], the IC50 in experiment [1] is 5100 nM; in experiment [2] it was 85 nM; in experiment [3], 7290 nM; at KRas G12S it was 17 nM; on KRas G12C, 31 nM; on KRas WT it was 27 nM.
For the molecule `COCC(=O)N(C)C(=O)CCCN(C)c1nc(OC[C@@]23CCCN2C[C@H](F)C3)nc2c(F)c(-c3ccc(F)c4sc(N)c(C#N)c34)c(Cl)cc12` [Example 307, 4-((7-(2-amino-3-cyano-7-fluorobenzo[b]thiophen-4-yl)-6-chloro-8-fluoro-2-(((2R,7aS)-2-fluorotetrahydro-1H-pyrrolizin-7a(5H)-yl)methoxy)quinazolin-4-yl)(methyl)amino)-N-(2-methoxyacetyl)-N-methylbutanamide], the IC50 turned out to be 70 nM in experiment [1]; 5 nM in experiment [2]; 15 nM in experiment [3]; 2 nM on KRas G12S; 3 nM on KRas G12C; 8 nM at KRas WT.
Take `Cc1ccn(C(=O)C2CCCN(c3nc(OC[C@@]45CCCN4C[C@H](F)C5)nc4c(F)c(-c5c(C#N)c(N)cc(C)c5C(F)(F)F)c(Cl)cc34)CC2)n1` (stereo partly drawn) [Example 248, 6-amino-2-(6-chloro-8-fluoro-2-(((2R,7aS)-2-fluorotetrahydro-1H-pyrrolizin-7a(5H)-yl)methoxy)-4-(4-(3-methyl-1H-pyrazole-1-carbonyl)azepan-1-yl)quinazolin-7-yl)-4-methyl-3-(trifluoromethyl)benzonitrile]: the IC50 in experiment [1] stood at 2920 nM; in experiment [2] it was 100 nM; in experiment [3], 4220 nM; on KRas G12S, 57 nM; at KRas G12C it was 360 nM; on KRas WT, 669 nM.
Consider `CCc1cc(O)cc2cccc(-c3c(Cl)cc4c(N5CCCC(C(=O)n6ccc(C)n6)CC5)nc(OC[C@@]56CCCN5C[C@H](F)C6)nc4c3F)c12` (stereo partly drawn) [Example 264, (1-(6-chloro-7-(8-ethyl-6-hydroxynaphthalen-1-yl)-8-fluoro-2-(((2R,7aS)-2-fluorotetrahydro-1H-pyrrolizin-7a(5H)-yl)methoxy)quinazolin-4-yl)azepan-4-yl)(3-methyl-1H-pyrazol-1-yl)methanone], for which the IC50 in experiment [1] was determined as 3490 nM; in experiment [2] it was 138 nM; in experiment [3], 847 nM; on KRas G12S it was 232 nM; at KRas G12C it was 170 nM; at KRas WT it was 732 nM.
With `CCc1c(F)ccc2cc(O)cc(-c3ncc4c(N5CCCCC(C(=O)n6ccc(C)n6)CC5)nc(OC[C@@]56CCCN5C[C@H](F)C6)nc4c3F)c12` (stereo partly drawn) [Example 53, (1-(7-(8-ethyl-7-fluoro-3-hydroxynaphthalen-1-yl)-8-fluoro-2-(((2R,7aS)-2-fluorotetrahydro-1H-pyrrolizin-7a(5H)-yl)methoxy)pyrido[4,3-d]pyrimidin-4-yl)azocan-4-yl)(3-methyl-1H-pyrazol-1-yl)methanone], the IC50 in experiment [1] turned out to be 305 nM; in experiment [2], 16 nM; in experiment [3] it was 88 nM; on KRas G12S, 2 nM; on KRas G12C, 7 nM; on KRas WT it was 77 nM.
With `Cc1ccn(C(=O)C2CCCN(c3nc(OC[C@@]45CCCN4C[C@H](F)C5)nc4c(F)c(-c5ccc(F)c6sc(N)c(C#N)c56)c(C(F)(F)F)cc34)CC2)n1` (stereo partly drawn) [Example 272, 2-amino-7-fluoro-4-(8-fluoro-2-(((2R,7aS)-2-fluorotetrahydro-1H-pyrrolizin-7a(5H)-yl)methoxy)-4-(4-(3-methyl-1H-pyrazole-1-carbonyl)azepan-1-yl)-6-(trifluoromethyl)quinazolin-7-yl)benzo[b]thiophene-3-carbonitrile], the IC50 in experiment [1] worked out at 62 nM; in experiment [2], 4 nM; in experiment [3], 3 nM; at KRas G12S it was 5 nM; at KRas G12C, 6 nM; at KRas WT it was 9 nM.
Consider `Cc1ccn(C(=O)CCNc2cc(O[C@@H](C)[C@@H]3CCCN3C)nc(-c3noc([C@@]4(C)CCCc5sc(N)c(C#N)c54)n3)n2)n1` [Example 318, (S)-2-amino-4-methyl-4-(3-(4-((3-(3-methyl-1H-pyrazol-1-yl)-3-oxopropyl)amino)-6-((S)-1-((S)-1-methylpyrrolidin-2-yl)ethoxy)pyrimidin-2-yl)-1,2,4-oxadiazol-5-yl)-4,5,6,7-tetrahydrobenzo[b]thiophene-3-carbonitrile], for which the IC50 in experiment [1] was 801 nM; in experiment [2], 17 nM; in experiment [3], 908 nM; at KRas G12S it was 3 nM; at KRas G12C, 2 nM; on KRas WT, 12 nM.
For `CCc1c(F)ccc2cc(O)cc(-c3ncc4c(N5C[C@@H]6C[C@@H](C(=O)n7ccc(C)n7)[C@@H]6C5)nc(OC[C@@]56CCCN5C[C@H](F)C6)nc4c3F)c12` [Example 162, ((1R,5R,6R)-3-(7-(8-ethyl-7-fluoro-3-hydroxynaphthalen-1-yl)-8-fluoro-2-(((2R,7aS)-2-fluorotetrahydro-1H-pyrrolizin-7a(5H)-yl)methoxy)pyrido[4,3-d]pyrimidin-4-yl)-3-azabicyclo[3.2.0]heptan-6-yl)(3-methyl-1H-pyrazol-1-yl)methanone], the IC50 in experiment [1] was more than 10000 nM; in experiment [2] it was 6480 nM; in experiment [3], more than 10000 nM; on KRas G12S, 491 nM; on KRas G12C, 673 nM; on KRas WT, 1050 nM.
Take `CCc1c(F)ccc2cc(O)cc(-c3ncc4c(N5CC[C@@H]6[C@H](C5)[C@@H]6C(=O)n5ccc(C)n5)nc(OC[C@@]56CCCN5C[C@H](F)C6)nc4c3F)c12` [Example 157, ((1S,6R,7R)-3-(7-(8-ethyl-7-fluoro-3-hydroxynaphthalen-1-yl)-8-fluoro-2-(((2R,7aS)-2-fluorotetrahydro-1H-pyrrolizin-7a(5H)-yl)methoxy)pyrido[4,3-d]pyrimidin-4-yl)-3-azabicyclo[4.1.0]heptan-7-yl)(3-methyl-1H-pyrazol-1-yl)methanone]: the IC50 in experiment [1] is 955 nM; in experiment [2] it was 7590 nM; in experiment [3] it was 2110 nM; on KRas G12S, 122 nM; on KRas G12C, 84 nM; at KRas WT it was 32 nM.
Regarding `C=Cc1ccn(C(=O)C2CCN(c3nc(OC[C@@]45CCCN4C[C@H](F)C5)nc4c(F)c(-c5cc(O)cc6ccc(F)c(CC)c56)ncc34)CC2)n1` [Example 66, (1-(7-(8-ethyl-7-fluoro-3-hydroxynaphthalen-1-yl)-8-fluoro-2-(((2R,7aS)-2-fluorotetrahydro-1H-pyrrolizin-7a(5H)-yl)methoxy)pyrido[4,3-d]pyrimidin-4-yl)piperidin-4-yl)(3-vinyl-1H-pyrazol-1-yl)methanone], the IC50 amounted to 5200 nM in experiment [1]; 141 nM in experiment [2]; 9020 nM in experiment [3]; 26 nM on KRas G12S; 57 nM at KRas G12C; 154 nM on KRas WT.
For the molecule `N#Cc1c(N)sc2c(F)ccc(-c3c(Cl)cc4c(N5CCC(C(=O)N6CCCC6)CC5)nc(OC[C@@]56CCCN5C[C@H](F)C6)nc4c3F)c12` [Example 246, 2-amino-4-(6-chloro-8-fluoro-2-(((2R,7aS)-2-fluorotetrahydro-1H-pyrrolizin-7a(5H)-yl)methoxy)-4-(4-(pyrrolidine-1-carbonyl)piperidin-1-yl)quinazolin-7-yl)-7-fluorobenzo [b]thiophene-3-carbonitrile], the IC50 in experiment [1] was 24 nM; in experiment [2] it was 223 nM; in experiment [3], 167 nM; on KRas G12S, 14 nM; at KRas G12C, 13 nM; on KRas WT it was 8 nM.

Values taken from patent US20260356856A1, “KRAS G12S AND G12C INHIBITORS” (MIRATI THERAPEUTICS, INC., priority 2023, published 2026).
